Assay results taken from paper PMC10747733, “N-Substituted 2-(Benzenosulfonyl)-1-Carbotioamide Derivatives Exert Antimicrobial and Cytotoxic Effects via Aldehyde Dehydrogenase Pathway: Synthesis, In Silico and In Vitro Studies” (Pharmaceuticals, 2023).
Converted amounts (≈) assume the structure as drawn. “Also recorded” adds a separate entry of the source.

Assays:
ALDH1A1 = ALDH1A1 concentration by ELISA in HepG2 cells; assay type: cell-based, human; details: compound at IC25, 48 h
Procedure: The effect of compounds WZ1–WZ4 on ALDHA1 levels was investigated (Figure 10). The Du145, HepG2 and 769-P cell lines were treated with the calculated IC25 values for each compound.
Selected cell lines, viz HepG2, Du145 and 769-P, were seeded into 6-well plates and incubated for 24 h after seeding with compounds at a concentration equal to IC25. After a further 24 h or 48 h, cells were detached with trypsin and centrifuged. The resulting cell pellet was resuspended in 0.5 mL PBS. The samples were then sonicated, and protein was determined using the Bradford method (Bio-rad; Hercules, CA, USA). Samples were equilibrated to 10 mg/mL of protein, and ALDH1A1 was determined in the samples prepared in this way. ALDH1A1 determination was performed using an ELISA (SEE824Hu; Cloud Clone Corp., Katy, TX, USA), according to the manufacturer’s protocol.

Gram-negative bacteria = assay: Broth microdilution, summary over reference Gram-negative bacteria; assay type: cell-based
Excerpt: Reference strains of microorganisms that came from American Type Culture Collection (ATCC) (Manassas, VA, USA) were used for this study. The representative Gram-positive bacteria were as follows: Staphylococcus aureus ATCC 25923, Staphylococcus aureus ATCC 29213, Staphylococcus aureus ATCC 43300, Staphylococcus epidermidis ATCC 12228, Enterococcus faecalis ATCC 29212, Micrococcus luteus ATCC 10240, Bacillus subtilis ATCC 6633 and Bacillus cereus ATCC 10876. […]
The new compounds WZ1–WZ4 were assayed for both antibacterial and antifungal activity using the broth microdilution method in accordance with the European Committee on Antimicrobial Susceptibility Testing (EUCAST) and Clinical and Laboratory Standards Institute (CLSI) guidelines. […] The antimicrobial effect of compounds WZ1–WZ4 was determined in the concentration range from 2000 to 0.98 µg/mL.
Then, the microbial suspensions were introduced into each well of the microplate and incubated for 18–24 h at 35 °C. […] Next, the values of the minimum bactericidal concentration (MBC) and minimum fungicidal concentration (MFC) of WZ1–WZ4 were assessed. […] The lowest concentrations of compounds without microbial growth were read as MBC or MFC. […]

SMILES	ALDH1A1 concentration compared to control (ALDH1A1)	MIC (Gram-negative bacteria; Gram-negative rods from Enterobacterales and Pseudomonas aeruginosa) [µg/mL]	MIC (Gram-negative bacteria; remaining Gram-negative bacteria (other than B. bronchiseptica and E. coli)) [µg/mL]
CCCCNC(=S)NNS(=O)(=O)c1ccccc1 [WZ2, 2-(Benzenesulfonyl)-N-Butylhydrazine-1-Carbothioamide]	increase; also recorded: increased levels		
CNC(=S)NNS(=O)(=O)c1ccccc1 [WZ4, 2-(Benzenesulfonyl)-N-Methylhydrazine-1-Carbothioamide]	increase; also recorded: increased levels		
CCCCCCNC(=S)NNS(=O)(=O)c1ccccc1 [WZ3, 2-(Benzenesulfonyl)-N-Hexylhydrazine-1-Carbothioamide]		500 to 1000 (≈ 1.58 to 3.17 mM)	1000 (≈ 3.17 mM)
